Experimental data as given in patent publication US12157746B2, “Tetrahydro-1H-pyrazino[2,1-a]isoindolylquinoline compounds for the treatment of autoimmune disease” (F. HOFFMANN-LA ROCHE AG, priority 2018, dated 2024).
pIC50: −log10 of the molar value.

Target: T1, human TLR8 (Homo sapiens, UniProt Q9NR97)
T1 sequence (Q9NR97 27-1041): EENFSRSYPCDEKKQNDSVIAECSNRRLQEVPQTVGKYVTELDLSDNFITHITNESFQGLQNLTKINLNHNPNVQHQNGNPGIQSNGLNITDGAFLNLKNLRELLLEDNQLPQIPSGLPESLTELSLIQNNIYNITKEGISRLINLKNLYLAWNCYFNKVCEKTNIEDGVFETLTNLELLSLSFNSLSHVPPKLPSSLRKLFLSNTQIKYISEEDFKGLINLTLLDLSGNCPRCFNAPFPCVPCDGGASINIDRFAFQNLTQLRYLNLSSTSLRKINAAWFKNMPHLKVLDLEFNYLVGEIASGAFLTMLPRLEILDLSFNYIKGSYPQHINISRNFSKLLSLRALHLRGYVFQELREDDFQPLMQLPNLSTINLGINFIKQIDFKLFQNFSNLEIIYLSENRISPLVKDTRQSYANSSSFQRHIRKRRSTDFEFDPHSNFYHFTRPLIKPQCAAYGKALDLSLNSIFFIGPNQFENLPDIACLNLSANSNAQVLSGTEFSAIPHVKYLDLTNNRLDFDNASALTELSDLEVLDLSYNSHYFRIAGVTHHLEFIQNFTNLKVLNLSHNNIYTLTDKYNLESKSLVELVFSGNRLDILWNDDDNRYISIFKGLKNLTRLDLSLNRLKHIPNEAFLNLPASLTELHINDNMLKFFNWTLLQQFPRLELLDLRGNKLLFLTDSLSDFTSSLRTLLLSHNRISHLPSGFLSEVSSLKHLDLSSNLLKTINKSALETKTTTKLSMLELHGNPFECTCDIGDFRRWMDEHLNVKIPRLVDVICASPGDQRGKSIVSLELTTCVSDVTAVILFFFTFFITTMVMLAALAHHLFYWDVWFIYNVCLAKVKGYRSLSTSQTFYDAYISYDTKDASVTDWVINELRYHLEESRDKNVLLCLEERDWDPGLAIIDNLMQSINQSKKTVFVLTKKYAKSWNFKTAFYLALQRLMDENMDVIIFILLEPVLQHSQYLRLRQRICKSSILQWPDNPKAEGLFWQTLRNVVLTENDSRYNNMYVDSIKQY
Experiment: HEK293-Blue-hTLR-8 cells assay
Assay type: cell-based
Details: HEK293-Blue-hTLR8 cells, R848 stimulation, 20 hrs, SEAP reporter; read-out: HEK/hTLR8 IC50
Description: HEK293-Blue-hTLR-8 Cells Assay:
A stable HEK293-Blue-hTLR-8 cell line was purchased from InvivoGen (Cat. #: hkb-htlr8, San Diego, California, USA). These cells were originally designed for studying the stimulation of human TLR8 by monitoring the activation of NF-κB. A SEAP (secreted embryonic alkaline phosphatase) reporter gene was placed under the control of the IFN-β minimal promoter fused to five NF-κB and AP-1-binding sites. The SEAP was induced by activating NF-κB and AP-1 via stimulating HEK-Blue hTLR8 cells with TLR8 ligands. Therefore the reporter expression was declined by TLR8 antagonist under the stimulation of a ligand, such as R848, for incubation of 20 hrs. The cell culture supernatant SEAP reporter activity was determined using QUANTI-Blue™kit (Cat. #: rep-qb1, Invivogen, San Diego, Ca, USA) at a wavelength of 640 nm, a detection medium that turns purple or blue in the presence of alkaline phosphatase.
HEK293-Blue-hTLR8 cells were incubated at a density of 250,000-450,000 cells/mL in a volume of 170 μL in a 96-well plate in Dulbecco's Modified Eagle's medium (DMEM) containing 4.5 g/L glucose, 50 U/mL penicillin, […], […], 2 mM L-glutamine, 10% (v/v) heat-inactivated fetal bovine serum with addition of 20 μL test compound 1n a serial dilution in the presence of final DMSO at 1% and 10 μL of 60 uM R848 in above DMEM, perform incubation under 37° C. in a CO2 incubator for 20 hrs. Then 20 μL of the supernatant from each well was incubated with 180 μL Quanti-blue substrate solution at 37° C. for 2 hrs and the absorbance was read at 620-655 nm using a spectrophotometer. The signaling pathway that TLR8 activation leads to downstream NF-κB activation has been widely accepted, and therefore similar reporter assay was modified for evaluating TLR8 antagonist.

| Structure (SMILES) | pIC50 |
| --- | --- |
| C[C@@H]1CN(c2ccc(C#N)c3ncccc23)C[C@@H]2c3ccc(N4CC[C@@H](N)C4)cc3CN12 [Example 20, 5-[(4R,10bS)-8-[(3R)-3-aminopyrrolidin-1-yl]-4-methyl-3,4,6,10b-tetrahydro-1H-pyrazino[2,1-a]isoindol-2-yl]quinoline-8-carbonitrile] | > 8.49 |
| CO[C@H]1CN(c2ccc3c(c2)CN2C3CN(c3ccc(C#N)c4ncccc34)C[C@H]2C)C[C@@H]1N (single isomer, unassigned) [Example 16A] | > 8.49 |
| CO[C@@H]1CN(c2ccc3c(c2)CN2[C@H](C)CN(c4ccc(C#N)n5nccc45)C[C@H]32)CC[C@@H]1N [Example 105, 4-[(4R,10bS)-8-[(3R,4S)-4-amino-3-methoxy-1-piperidyl]-4-methyl-3,4,6,10b-tetrahydro-1H-pyrazino[2,1-a]isoindol-2-yl]pyrazolo[1,5-a]pyridine-7-carbonitrile] | 8.39 |
| C[C@@H]1CN(c2ccc(C#N)n3nccc23)C[C@@H]2c3ccc(N4CCNCC4)cc3CN12 [Example 5, 4-[(4R,10bS)-4-methyl-8-piperazin-1-yl-3,4,6,10b-tetrahydro-1H-pyrazino[2,1-a]isoindol-2-yl]pyrazolo[1,5-a]pyridine-7-carbonitrile] | > 8.49 |
| C[C@@H]1CN(c2ccc(C#N)n3nccc23)C[C@@H]2c3ccc(N4C[C@@H](N)[C@](C)(O)C4)cc3CN12 [Example 108, 4-[(4R,10bS)-8-[(3R,4R)-4-amino-3-hydroxy-3-methyl-pyrrolidin-1-yl]-4-methyl-3,4,6,10b-tetrahydro-1H-pyrazino[2,1-a]isoindol-2-yl]pyrazolo[1,5-a]pyridine-7-carbonitrile] | 8.05 |
| C[C@@H]1CN(c2ccc(C#N)c3nccnc23)C[C@@H]2c3ccc(N4CCNCC4)cc3CN12 [Example 7, 8-[(4R,10bS)-4-methyl-8-piperazin-1-yl-3,4,6,10b-tetrahydro-1H-pyrazino[2,1-a]isoindol-2-yl]quinoxaline-5-carbonitrile] | > 8.49 |
| C[C@@H]1CN(c2ccc(C#N)c3ncccc23)C[C@@H]2c3ccc(N4CCNCC(O)C4)cc3CN12 (stereo partly drawn) [Example 15, 5-[(4R,10bS)-8-(6-hydroxy-1,4-diazepan-1-yl)-4-methyl-3,4,6,10b-tetrahydro-1H-pyrazino[2,1-a]isoindol-2-yl]quinoline-8-carbonitrile] | > 8.49 |
| C[C@@H]1CN(c2ccc(C#N)c3ncccc23)C[C@@H]2c3ccc(C4CCNCC4)cc3CN12 [Example 9, 5-[(4R,10bS)-4-methyl-8-(4-piperidyl)-3,4,6,10b-tetrahydro-1H-pyrazino[2,1-a]isoindol-2-yl]quinoline-8-carbonitrile] | > 8.49 |
| C[C@@H]1CN(c2ccc(C#N)n3nccc23)C[C@@H]2c3ccc(N4CCOC[C@H](N)C4)cc3CN12 [Example 101, 4-[(4R,10bS)-8-[(6R)-6-amino-1,4-oxazepan-4-yl]-4-methyl-3,4,6,10b-tetrahydro-1H-pyrazino[2,1-a]isoindol-2-yl]pyrazolo[1,5-a]pyridine-7-carbonitrile] | 8.28 |
| C[C@@H]1CN(c2ccc(C#N)n3nccc23)C[C@@H]2c3ccc(N4CC[C@@](C)(N)C4)cc3CN12 [Example 103, 4-[(4R,10bS)-8-[(3R)-3-amino-3-methyl-pyrrolidin-1-yl]-4-methyl-3,4,6,10b-tetrahydro-1H-pyrazino[2,1-a]isoindol-2-yl]pyrazolo[1,5-a]pyridine-7-carbonitrile] | 8.32 |
| CO[C@@H]1CN(c2ccc3c(c2)CN2C3CN(c3ccc(C#N)c4ncccc34)C[C@H]2C)C[C@@H]1N (relative stereo) [Example 17, 5-[(4R,10bS)-8-[cis-3-amino-4-methoxy-pyrrolidin-1-yl]-4-methyl-3,4,6,10b-tetrahydro-1H-pyrazino[2,1-a]isoindol-2-yl]quinoline-8-carbonitrile] | > 8.49 |
| C[C@@H]1CN(c2ccc(C#N)n3ncc(F)c23)C[C@@H]2c3ccc(N4C[C@H](N)[C@@](C)(O)C4)cc3CN12 [Example 112, 4-[(4R,10bS)-8-[(3S,4S)-4-amino-3-hydroxy-3-methyl-pyrrolidin-1-yl]-4-methyl-3,4,6,10b-tetrahydro-1H-pyrazino[2,1-a]isoindol-2-yl]-3-fluoro-pyrazolo[1,5-a]pyridine-7-carbonitrile] | 8.44 |
| C[C@@H]1CN(c2ccc(C#N)n3nccc23)C[C@@H]2c3ccc(N4C[C@H](N)[C@@](C)(O)C4)cc3CN12 [Example 109, 4-[(4R,10bS)-8-[(3S,4S)-4-amino-3-hydroxy-3-methyl-pyrrolidin-1-yl]-4-methyl-3,4,6,10b-tetrahydro-1H-pyrazino[2,1-a]isoindol-2-yl]pyrazolo[1,5-a]pyridine-7-carbonitrile] | 8.17 |

More lines, now with the values ahead:

| pIC50 | Structure (SMILES) |
| --- | --- |
| 9.22 | [2H]c1ccc2c(N3C[C@@H](C)N4Cc5cc(N[C@H]6CNC[C@H]6F)ccc5[C@H]4C3)ccc(C#N)c2n1 [Example 91, 5-[(4R,10bS)-8-[[(3S,4R)-4-fluoropyrrolidin-3-yl]amino]-4-methyl-3,4,6,10b-tetrahydro-1H-pyrazino[2,1-a]isoindol-2-yl]-2-deuterio-quinoline-8-carbonitrile] |
| > 9.52 | C[C@@H]1CN(c2ccc(C#N)c3ncccc23)C[C@@H]2c3ccc(N4CCC(C)(N)CC4)cc3CN12 [Example 51, 5-[(4R,10bS)-8-(4-amino-4-methyl-1-piperidyl)-4-methyl-3,4,6,10b-tetrahydro-1H-pyrazino[2,1-a]isoindol-2-yl]quinoline-8-carbonitrile] |
| 8.68 | [2H]c1ccc2c(N3C[C@@H](C)N4Cc5cc(N6CC7CNCC(C6)O7)ccc5[C@H]4C3)ccc(C#N)c2n1 [Example 93, 5-[(4R,10bS)-4-methyl-8-(9-oxa-3,7-diazabicyclo[3.3.1]nonan-3-yl)-3,4,6,10b-tetrahydro-1H-pyrazino[2,1-a]isoindol-2-yl]-2-deuterio-quinoline-8-carbonitrile] |
| 9.22 | C[C@@H]1CN(c2ccc(C#N)c3ncccc23)C[C@@H]2c3ccc(N4C[C@H](N)[C@@H](F)C4)cc3CN12 [Example 49, 5-[(4R,10bS)-8-[(3S,4S)-3-amino-4-fluoro-pyrrolidin-1-yl]-4-methyl-3,4,6,10b-tetrahydro-1H-pyrazino[2,1-a]isoindol-2-yl]quinoline-8-carbonitrile] |
| > 9.52 | C[C@@H]1CN(c2ccc(C#N)c3ncccc23)C[C@@H]2c3ccc(N4CC(C)(N)C4)cc3CN12 [Example 39, 5-[(4R,10bS)-8-(3-amino-3-methyl-azetidin-1-yl)-4-methyl-3,4,6,10b-tetrahydro-1H-pyrazino[2,1-a]isoindol-2-yl]quinoline-8-carbonitrile] |
| 9.05 | C[C@@H]1CN(c2ccc(C#N)c3ncccc23)C[C@@H]2c3ccc(N4C[C@@H](N)[C@H](O)C4)cc3CN12 (single isomer, unassigned) [Example 40B] |
| 8.70 | CO[C@@H]1CN(c2ccc3c(c2)CN2[C@H](C)CN(c4ccc(C#N)n5ncc(F)c45)C[C@H]32)C[C@H]1N [Example 113, 4-[(4R,10bS)-8-[(3R,4R)-3-amino-4-methoxy-pyrrolidin-1-yl]-4-methyl-3,4,6,10b-tetrahydro-1H-pyrazino[2,1-a]isoindol-2-yl]-3-fluoro-pyrazolo[1,5-a]pyridine-7-carbonitrile] |
